Laboratory results as given in BindingDB's records for patent US20240018140 (Merck Sharp & Dohme, 2024).

Target: T1, Ceramide glucosyltransferase (Homo sapiens, UniProt Q16739)
T1 sequence (Q16739 whole entry): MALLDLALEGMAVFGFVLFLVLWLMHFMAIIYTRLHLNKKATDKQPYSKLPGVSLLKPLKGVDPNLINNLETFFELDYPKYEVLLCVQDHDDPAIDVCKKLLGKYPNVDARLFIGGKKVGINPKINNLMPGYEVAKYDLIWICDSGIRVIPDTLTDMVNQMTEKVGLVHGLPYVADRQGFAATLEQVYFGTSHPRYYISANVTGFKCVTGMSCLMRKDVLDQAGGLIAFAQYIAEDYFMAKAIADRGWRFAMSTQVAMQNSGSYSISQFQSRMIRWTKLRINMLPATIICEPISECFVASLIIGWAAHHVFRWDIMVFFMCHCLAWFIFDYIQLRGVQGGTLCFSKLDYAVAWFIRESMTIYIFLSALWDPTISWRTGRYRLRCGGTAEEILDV
Assay: UDP-Glo Glucosylceramide Synthase Biochemical Assay
Procedure: Using Promega's UDP-Glo Glycosyltransferase assay kit (Promega Corporation, Madison, WI, USA (Promega)), GCS activity was indirectly measured by detecting the amount of UDP produced. An aliquot of GCS enzyme (1.5 μg crude golgi preparation, total protein) and titrated test compound were aliquoted to each well and incubated for 30 minutes at room temperature. […] An equivalent volume of substrate mixture was then added to each well. Following a 20 h incubation at room temperature to allow for GCS turnover of substrate, an equal volume of UDP detection reagent (Promega) was added to each well and incubated for an additional 75 minutes at room temperature to simultaneously convert the accumulated UDP product into ATP and generate light in a luciferase reaction. The generated light was detected using a luminometer.

EC50	SMILES
2.4 nM	COCC1(NC(=O)c2cn3cc(Cl)cc(-c4ccccc4OCC(F)(F)F)c3n2)CC1 [US20240018140, Compound 6]
1.2 nM	CN1CCN(C(=O)c2cn3cc(Cl)cc(-c4ccccc4OCC(F)(F)F)c3n2)CC1(C)C [US20240018140, Compound 7]
